{
  "source": "patent US8822419B2",
  "about": "“Membrane resident peptide in anti-cancer peptides causes tumor cell necrosis rather than apoptosis of cancer cells” (The Research Foundation of State University of New York, priority 2008, dated 2014)",
  "key": {"MiaPaCa-2 cells [1]": {"system": "MiaPaCa-2 cells", "assay": "Incubation of MiaPaCa-2 cells with peptides; cell counts by trypan blue exclusion, MTT", "format": "cell-based, human", "protocol": "Duplicate sets of 6×10^6 MiaPaCa-2 cells were incubated with different concentrations of PNC-28, i.e., 5, 10, 20, 40, 80 and 160 μmol/ml. […] All incubations were carried out using a protocol identical to that described in ref. 1 (1). After the cells had been allowed to adhere to the tissue culture dish (TCD) for 24 hours the medium was removed from each TCD, and new medium containing the same or no peptide concentration was added. Medium from each TCD was removed every 24 h, and fresh medium with its respective peptide at the appropriate concentration was added. Cells were inspected daily for changes in cell growth, morphology, and viability. At the end of each day over a five-day period, duplicate cell counts were performed for each incubation using the trypan blue exclusion method. In addition, cell viability was also determined by 3-[4,5-dimethylthiazol-2-yl]-2,5 diphenyl tetrazolium bromide (MTT) assay according to the manufacturers' instructions (Promega Corporation, Madison, Wis., USA)."}, "MiaPaCa-2 cells [2]": {"system": "MiaPaCa-2 cells", "assay": "LDH release into cell culture medium (CytoTox96) as marker for necrosis", "format": "cell-based, human", "protocol": "(§1) Cells from culture plates at 18, 44, 66 and 90 h time points were lysed in situ in cell lysis buffer [1% Triton X-100 in 0.05 M Tris-HCl (pH 8.0), […], 0.02% Na azide, 0.1 mg/ml phenylmethylsulfonylfluoride (PMSF), and 0.001 mg/ml Aprotinin]. Lysates were subjected to 10% SDS-PAGE followed by electrotransfer to nitrocellulose and immunoblotting with antibodies to GFP and p53 (Santa Cruz Biotechnology, Santa Cruz, Calif.). Antibody-labeled proteins were identified by chemiluminescence using ECL methodology (Amersham)(1). Assays for elevated caspase expression were performed using the Clontech (Palo Alto, Calif.) for caspase (CPP32) activity (2). As a positive control for the caspase activity assay, Mia-PaCa-2 cells were incubated with tumor necrosis factor (TNF) (Sigma, St. Louis, Mo.) at a concentration of 10 ng/ml for 24 h. In addition, to detect if significant cell necrosis occurred, the CytoTox96 assay was used (Promega, Madison, Wis.) for LDH released into the cell culture medium as performed on several breast cancer cell lines (2)."}, "cancer cells": {"system": "cancer cells", "conditions": "previous studies (1-3), also in cancer cells in which p53 protein was absent; cited from earlier work"}, "MiaPaCa-2 cells [3]": {"system": "MiaPaCa-2 cells", "assay": "Immunoblotting of MiaPaCa-2 cell lysates for p53 and waf^p21, with caspase activity", "format": "cell-based, human", "conditions": "at near 100 percent cell death: 96 hr transfected cells, 48 hr PNC-28 75 μmol/ml, FIG. 6", "protocol": "For protein analyses, and detection of apoptosis, 2×10^6 cells were seeded into 10 cm diameter TCDs and transfected with DNA: Lipofectamine 2000 proportionally adjusted to the increased area. When the cell density reached 90-100%, the cells of the experimental and sham-transfected group were detached using trypsin and plated into four new TCD's in which they were allowed to grow in complete medium. At defined time points cells were released from adherence with 10 mM EDTA in PBS and were lysed in lysing buffer [1% Triton X-100 in 0.05 M Tris-HCl (pH 8.0), […], 0.02% Na azide, 0.01 mg/ml phenylmethylsulfonylfluoride (PMSF), and 0.001 mg/ml Aprotinin]. Protein equivalents of 10^6 cells, i.e., ˜30 μg/lane, were then subjected to SDS-PAGE using 10% Tris-HCl gels and, in some experiments, 16% Tricine Peptide Gels (Biorad, Hercules, Calif.) to detect PNC-28 (−3104 Da) and p53 17-26 (−1500 Da). […] Semi-quantitation of immunoblotting results was performed by measuring luminosity of bands in a single scanned developed x-ray film, using the histogram option of Adobe Photoshop 5.5. […] Opacity of each band was calculated by the equation, Opacity=255-Luminosity-background (15). […]"}, "MiaPaCa-2 cells [4]": {"system": "MiaPaCa-2 cells", "assay": "Time-lapse electron microscopy of MiaPaCa-2 cells treated with PNC-28", "format": "cell-based, human", "conditions": "25 μmol/ml, 15 min, FIG. 4B", "protocol": "Time-lapse electron microscopy (EM) was used to examine the ultrastructural features of cell death. MiaPaCa-2 cells were grown for 24 h on Thermanox cover slips (Lux Scientific), and then treated with 25 μmol of PNC-28 for 1 and 15 min, along with a corresponding control group without peptide. The cells were washed with PBS solution and then fixed with 2.5% gluteraldehyde-PBS. The fixed cultures were rinsed in a 0.1 M phosphate buffer (pH 7.3), post fixed in 2% (0.08 m) osmium tetroxide-PBS (pH 7.3), dehydrated in a graded series of ethanol and propylene oxide and embedded in Epon 812. Sections were cut at 700 Å, stained with uranyl acetate and lead citrate and examined with a Jeol JEM 1010 Electron Microscope."}, "MiaPaCa-2 cells [5]": {"system": "MiaPaCa-2 cells", "assay": "Caspase (CPP32) activity assay as marker for apoptosis", "format": "cell-based, human", "protocol": "as §1"}, "[6]": {"conditions": "all doses over the 20-75 μmol/ml range, FIG. 4D"}},
  "note": "Entries after “also recorded” stand apart in the source; their conditions may differ.",
  "data": [
    {"molecule": "CC[C@H](C)[C@H](NC(=O)[C@H](CCCNC(=N)N)NC(=O)[C@H](CCCCN)NC(=O)CNC(=O)[C@@H](NC(=O)[C@H](CO)NC(=O)[C@H](Cc1ccccc1)NC(=O)[C@@H]1CCCN1C(=O)[C@@H](N)CCSC)[C@@H](C)O)C(=O)N[C@@H](CCSC)C(=O)N[C@@H](CC(C)C)C(=O)NCC(=O)N[C@@H](CCC(=O)O)C(=O)N[C@@H](CCCCN)C(=O)N[C@@H](CCCCN)C(=O)N[C@@H](Cc1c[nH]c2ccccc12)C(=O)N[C@@H](CCCCN)C(=O)N[C@@H](CCSC)C(=O)N[C@@H](CCCNC(=N)N)C(=O)N[C@@H](CCCNC(=N)N)C(=O)N[C@@H](CC(N)=O)C(=O)N[C@@H](CCC(N)=O)C(=O)N[C@@H](Cc1ccccc1)C(=O)N[C@@H](Cc1c[nH]c2ccccc12)C(=O)N[C@H](C(=O)N[C@@H](CCCCN)C(=O)N[C@H](C(=O)N[C@@H](CCC(N)=O)C(=O)N[C@@H](CCCNC(=N)N)C(=O)NCC(=O)O)C(C)C)C(C)C", "note": "[PNC-29, reference compound]", "values": [
      {"measurement": "cytotoxicity, number of remaining cells versus untreated", "setting": "MiaPaCa-2 cells [1]; 75 μmol/ml, 48 h, FIG. 3", "result": "no effect on cell growth"}
    ]},
    {"molecule": "ETFSDLWKLLKKWKMRRNQFWVKVQRG (PNC-28)", "values": [
      {"measurement": "LDH activity", "setting": "MiaPaCa-2 cells [2]; 25 μmol/ml, 24 h, FIG. 4A", "result": "almost to the same extent as cells that were lysed with lysis buffer; also recorded: high levels of LDH"},
      {"measurement": "LDH", "setting": "MiaPaCa-2 cells [2]; 25 umol/ml, 24 h, FIG. 4D", "result": "approximately 0.235 OD"},
      {"measurement": "LDH", "setting": "MiaPaCa-2 cells [2]; 50 umol/ml, 24 h, FIG. 4D", "result": "approximately 0.44 OD"},
      {"measurement": "LDH", "setting": "MiaPaCa-2 cells [2]; 75 umol/ml, 24 h, FIG. 4D", "result": "approximately 0.35 OD"},
      {"measurement": "LDH release", "setting": "MiaPaCa-2 cells [2]; [6]", "result": "early release of LDH"},
      {"measurement": "mode of tumor cell death", "setting": "cancer cells", "result": "induced tumor cell necrosis, not apoptosis"},
      {"measurement": "levels of p53, waf^p21 and caspase activity", "setting": "MiaPaCa-2 cells [3]", "result": "not observed"},
      {"measurement": "time to cell death", "setting": "MiaPaCa-2 cells [1]; 20 μmol/ml", "result": 1, "unit": "week"},
      {"measurement": "cell death", "setting": "MiaPaCa-2 cells [1]; 20 μmol/ml, 48 h, FIG. 2", "result": "roughly 35%"},
      {"measurement": "time to similar (near total) cell death", "setting": "MiaPaCa-2 cells [1]; 40 μmol/ml", "result": 4, "unit": "days"},
      {"measurement": "cell morphology", "setting": "MiaPaCa-2 cells [1]; 75 μmol/ml, 24 h, FIG. 1B", "result": "appear necrotic"},
      {"measurement": "cell death as measured by trypan blue dye uptake", "setting": "MiaPaCa-2 cells [1]; 75 μmol/ml, 48 h", "result": "~100", "unit": "%"},
      {"measurement": "time to near total cell death", "setting": "MiaPaCa-2 cells [1]; 80 μmol/ml", "result": 48, "unit": "h"},
      {"measurement": "cell death", "setting": "MiaPaCa-2 cells [1]; 80 μmol/ml, 48 h, FIG. 2", "result": "over 80%"},
      {"measurement": "cell death", "setting": "MiaPaCa-2 cells [1]; doses between 20 and 75 μmol/ml, time decreasing with dose", "result": "~100", "unit": "%"},
      {"measurement": "plasma membrane integrity in electron micrographs", "setting": "MiaPaCa-2 cells [4]", "result": "exhibit lysis of their plasma membranes"},
      {"measurement": "caspase level", "setting": "MiaPaCa-2 cells [5]; 25 μmol/ml, 24 h, FIG. 4C", "result": "only baseline levels"},
      {"measurement": "caspase", "setting": "MiaPaCa-2 cells [5]; 25 umol/ml, 24 h, FIG. 4D", "result": "approximately 0.03"},
      {"measurement": "caspase", "setting": "MiaPaCa-2 cells [5]; 50 umol/ml, 24 h, FIG. 4D", "result": "approximately 0.02"},
      {"measurement": "caspase", "setting": "MiaPaCa-2 cells [5]; 75 umol/ml, 24 h, FIG. 4D", "result": "approximately 0.015"},
      {"measurement": "caspase level", "setting": "MiaPaCa-2 cells [5]; [6]", "result": "only background levels of caspase"}
    ]},
    {"molecule": "PPLSQETFSDLWKLLKKWKMRRNQFWVKVQRG (PNC-27)", "values": [
      {"measurement": "mode of tumor cell death", "setting": "cancer cells", "result": "induced tumor cell necrosis, not apoptosis"}
    ]},
    {"molecule": "TNF-α [reference compound]", "values": [
      {"measurement": "caspase 3 activity, positive control", "setting": "MiaPaCa-2 cells [5]; 10 ng/ml, 24 h, FIG. 4C condition 1", "result": "Maximal caspase release"}
    ]}
  ]
}
